Assay results reported in US11129782B2, “Derivatives of PPD useful for coloring hair and skin” (National University of Singapore, priority 2017, dated 2021).
Values joined by “and” are separate entries in the source; they are usually repeats but may differ in a detail not shown here. Equal values may be shown once.

Tests used:
IL-8 = IL-8 ELISA on THP-1 cell supernatants; format: cell-based, human; conditions: preliminary ELISA, CV75
Experimental: (§1) For cytokine profiling in THP-1, supernatants from wells were collected and then used for cytokine analysis by a Chemokine immunosorbent assay Bio-legend ELISA Max kit. The levels of available IL-8 protein from THP-1 cell supernatants was estimated using this kit which are regulated upon activation of THP-1 model. Surface receptor expression of human CD-86, CD-54, MHC-I and IL-T3 were analyzed by flow cytometry using standard BD FACS analyzer with PE and FITC fluorescent labeled antibodies from Biolegend and e Bioscience.
(§2) In order to understand the effect of modified PPD hairdyes on THP-1 immune sensitization, a certain degree of Cytotoxicity at CV75% viable where 25% cell death is required before evaluation of supernatants in THP-1 models for expression of cytokine IL-8 and receptor expression of CD86, CD54, MHC-I and IL-T3 surface receptors upon treatment with standard PPD and modified hair dye compounds. Most allergens show a specific dose-dependent alteration of CD86 and/or CD54 expression or secretion of cytokine profiles. But depending on chemical, the alteration pattern may vary.

[1] = Skin permeation in vertical Franz diffusion cells; format: in vitro ADME, porcine; conditions: 8 h; for Penetration profile PPD vs derivatives (times less than PPD): ratio of PPD penetration to that of the compound; for recovery at 8 h, 1 % w/v: pig, read-out: % Parent compound Recovery (mean)
Experimental: Porcine ears were generously provided by the NUS Department of Surgery. The ears were frozen at −80° C. until use (up to 3 months) and thawed at room temperature on the day preceding the experiment. Prior to the experiment, the skin was separated from the cartilage and dermatomed to a thickness of ˜1.0 mm using an Acculan™ 3Ti dermatome (Aesculap, Inc., B. Braun, USA).
The PPD and derivatives were dissolved in deionized water at 1% w/v. The PPD and PPD derivatives 1-5 solutions were purged with argon gas to minimize oxidation of the donor solution.
Skin penetration studies were carried out using vertical Franz diffusion cells (PermeGear, USA) immersed in a 37° C. water bath. The donor and receptor volumes were 900 µL and 5 mL, respectively; the mean surface area of penetration was 0.64 cm^2. Upon insertion of the skin pieces into the Franz cells, the skin was equilibrated for 45 min with PBS in the receptor compartment. After equilibration, the skin's trans-epidermal water loss (TEWL) was measured using an Aquaflux AF300 (Biox, UK) to assess the integrity of the skin's stratum corneum barrier. The donor solution, consisting of PPD or derivative 1-5 (n=3 Franz cells each), was then added to the donor compartment and the penetration experiments were conducted for 8 h. The receptor solutions were continuously stirred with magnetic stirrers. At fixed time points, aliquots of 200 μL were taken from the receptor solution of each cell and the receptor solution topped up with 200 μL of fresh PBS. At the end of the experiment, the donor and receptor solutions were removed and the cells dismantled. For the purpose of mass balance on the PPD, PPD derivatives 1-5 the skin pieces and swabs of their outer surfaces were collected and stored in acetonitrile for PPD or derivative 1-5 extraction. The donor solution as well as PBS used to thoroughly wash each part of the Franz cells were also collected.
PPD, PPD derivatives 1-5 and metabolite concentrations in all permeation and mass balance samples were measured by LCMS. PPD steady state fluxes and permeability coefficients were calculated by fitting the solution to Fick's second law of diffusion at the steady state to the linear part of each experimental cumulative amount curve.
The validated method LCMS was applied to quantify PPD, PPD derivative 1-5 and metabolites from skin permeation study samples. FIGS. 3 and 4 show LCMS spectra for the identification of PPD and PPD derivatives 1 and 2 and metabolites from skin permeation study experiment.

ILT3 = ILT3 surface expression on THP-1 by flow cytometry; format: cell-based, human; conditions: in comparison to DCNB
Experimental: as §1, §2

HaCaT cells = experiment: In vitro cell cytotoxicity (MTT) assay on HaCaT cells; format: cell-based, human; conditions: for IC50: 72 h incubation, MTT
Excerpt: HaCaT (human, adult, low calcium, high temperature, human adult skin keratinocytes) cells were obtained from the IMB (Institute of Medical Biology) Skin Cell Bank. Fetal bovine serum (FBS), Dulbecco's minimum essential medium (DMEM) and trypsin EDTA solution were purchased from GE healthcare life sciences, Utah. Penicillin/streptomycin, dimethyl sulfoxide (DMSO), and phosphate buffered saline (PBS) were from Fisher Scientific (Singapore). Para-phenylenediamine (PPD) was purchased from Sigma Aldrich (Singapore). PPD analogues such as Dimer, trimer, ethyl hexyl para-phenylenediamine (EHPPD), hexyl para-phenylenediamine (HPPD), Bandrowski base (BB) were synthesized in house.
Cell viability was essentially determined using the MTT assay as described in the literature. The HaCaT cells were grown in DMEM with 10% FBS and 1% penicillin/streptomycin. The cells in T-75 cm^2 culture flasks were incubated with 5% CO2 at 37° C. in a humidified incubator. The HaCaT cells were grown to expected confluency and then they were harvested by trypsinizing the cell with 0.25% trypsin/EDTA and incubated at 37° C. for 5 min to obtain the complete cell detachment. After the incubation, cell pellets were resuspended, and washed twice with 1×PBS. The cell suspension in 1×PBS was counted and adjusted to 1×10^5/mL. A HaCaT keratinocyte suspension (100 μL in 1×PBS) with a cell concentration of 1×10^5 cells/mL) and a test solution (100 μL in milli-Q water) were combined in each well of two 96-well plates. Test solutions with a desired concentration were prepared by serial dilutions of the stock solutions with 1×PBS.
For the cytotoxicity experiment, cells were seeded at a density of 5×10^3 in 200 ul of medium into each well of 96-well plates. Cells were seeded as three sets of four replicates for each concentration. After 24 h of incubation, the cells were washed with PBS and cultured for 72 h with 200 ul of 10% FBS containing DMEM medium, together with the different concentrations of the test compounds ranging from 500 μM to 1.9 μM for PPD and analogues 1-5 and standard in a serial dilution. Then the medium was removed and 100 μl of MTT [3-(4,5-dimethylthiazol-2yl)-2,5-diphenyl-2H-tetrazolium bromide](1 mg/ml) (Alfa Aesar, Singapore) in PBS was added. At the end of 4 h incubation, the plates were removed from the incubator and plates were shaken for 5 min. The absorbance at 570 nm was determined using Bio-Tek plate reader. The cell viability rates were calculated from absorbance readings and represented as percentages of control value (untreated cells).

[2] = system: cysteine and lysine peptides; experiment: Direct Peptide Reactivity Assay, mean of cysteine and lysine depletion (FIG. 12); conditions: for Sensitizing potential predicted from mean peptide depletion: cysteine 1:10 / lysine 1:50 model
Experimental: Direct reactivity of test chemical to lysine-based synthetic peptide was determined in reactions containing 100 mM ammonium acetate buffer (pH 10.2). The final concentration of lysine peptide was 20 μM in a final reaction volume of 0.3 ml. Direct reactivity of test chemicals to cysteine-based synthetic peptide was determined in 100 mM Sodium Phosphate buffer of pH 7.5.
For the DPRA, incubation mixtures were prepared using each peptide to test compound ratios of both 1:10 for cysteine peptide and 1:50 for lysine peptide, according to Table 19. […] Sample reactions were initiated by adding 3 μl of a test chemical stock solution for cysteine and 15 μl stock solution for lysine peptide. These mixtures were then placed in a temperature-controlled shaking incubator at 25° C.
At each time point (20 mins/24 hours), the incubation mixtures were quenched with 75 μL of 95% ACN/H2O, and mildly vortexed (600 rpm, 3 seconds). For Lysine DPRA experiment, 10 μl of aliquot was diluted with 2% ACN/H2O, vortexed and stored at −80° C. until analysis by LC-MS/MS. For cysteine DPRA, an additional step was performed. 10 μl of cysteine reaction mixture, at time points 20 min and 24 h were diluted in 180 μl of 2% ACN/H2O. To which, a 10 μl aliquot of a 16 mM dithiothreitol solution (prepared in water) was then added, and samples were heated in a 45° C. oven for 30 min, then allowed to cool to room temperature prior to analysis. The peptide depletion (PD) percentage was obtained using this equation.

[3] = system: cysteine peptide (Ac-RFAACAA-COOH); experiment: Direct Peptide Reactivity Assay, cysteine peptide; conditions: for % of Cysteine depletion, Avg / % of Cysteine depletion, Rep 2 / % of Cysteine depletion, Rep 3 / Reactivity Class: 1:10; for % of Cysteine depletion, Rep 1: peptide 0.02 mM : test chemical 0.2 mM (1:10); for Reactivity Class: cysteine
Experimental: For cysteine DPRA, an additional step was performed.
(§3) The mass spectrometric analysis was performed by use of a AB SCIEX QTRAP 5500 tandem mass spectrometry (MS/MS) system (AB SCIEX, Framingham, Mass., USA) operating in triple quadrupole positive mode (ESI+) equipped with an AB Sciex Turbo Ion Spray interface. Acquisition and analysis of data were performed with Analyst software ver. 1.6.2 (Applied Biosystems).

[4] = system: lysine peptide (Ac-RFAAKAA-COOH); experiment: Direct Peptide Reactivity Assay, lysine peptide; conditions: for % of Lysine depletion, Avg / % of Lysine depletion, Rep 2 / % of Lysine depletion, Rep 3 / Reactivity Class: 1:50; for % of Lysine depletion, Rep 1: peptide 0.02 mM : test chemical 1 mM (1:50); for Reactivity Class: lysine
Experimental: as §3

% Parent compound Penetrated (mean) ([1]; 1% W/V applied) [%] | % converted to metabolite (mean) ([1]; 1% W/V applied) [%] | recovery at 8 h, 1 % w/v ([1]; 1% W/V applied) [%] | Reactivity Class ([3]; 24 h) | SMILES | Sensitizing potential predicted from mean peptide depletion [2] | % of Cysteine depletion, Avg ([3]; 20 min) [%] | % of Cysteine depletion, Rep 2 ([3]; 20 min) [%] | % of Cysteine depletion, Rep 3 ([3]; 20 min) [%] | % of Cysteine depletion, Rep 1 ([3]; 20 min) [%] | % of Cysteine depletion, Avg ([3]; 24 h) [%] | % of Cysteine depletion, Rep 2 ([3]; 24 h) [%] | % of Cysteine depletion, Rep 3 ([3]; 24 h) [%] | % of Cysteine depletion, Rep 1 ([3]; 24 h) [%] | IC50 (HaCaT cells; Homo sapiens, HaCaT, 72 h) [µM] | % of Lysine depletion, Avg ([4]; 20 min) [%] | % of Lysine depletion, Rep 2 ([4]; 20 min) [%] | % of Lysine depletion, Rep 3 ([4]; 20 min) [%] | % of Lysine depletion, Rep 1 ([4]; 20 min) [%] | % of Lysine depletion, Avg ([4]; 24 h) [%] | % of Lysine depletion, Rep 2 ([4]; 24 h) [%] | also measured
– | – | – | – | O=[N+]([O-])c1ccc(Cl)c([N+](=O)[O-])c1 [DNCB, reference compound] | – | – | – | – | – | – | – | – | – | – | – | – | – | – | – | – | IL-8 expression (IL-8): increased expression
0.00173 | 0.008 | 96.4 | High | Nc1ccc(Nc2ccc(Nc3ccc(N)cc3)cc2)cc1 [PPD derivative 2, N^1,N^4-bis(4-aminophenyl)-1,4-benzenediamine] | high sensitizing agents | 54.0 | 53.6 | 52.6 | 55.6 | 64.1 | 65.6 | 61.2 | 65.6 | 4.14 | 11.2 | 11.8 | 11.8 | 10.1 | 9.08 | 9.79 | Penetration profile PPD vs derivatives (times less than PPD) ([1]; listed as PPD 2): 93 and 93.6; ILT3 (inhibitory receptor) expression (ILT3): increased; Reactivity Class ([3]; 20 min): High; Fold increase in cytotoxicity compared to PPD 1 (HaCaT cells): 6 fold; % of Lysine depletion, Rep 3 ([4]; 24 h): 8.28%; % of Lysine depletion, Rep 1 ([4]; 24 h): 8.97%; Reactivity Class ([4]; 20 min): Low; Reactivity Class ([4]; 24 h): Low
0.00045 | 0.0123 | 94.5 | Moderate | CCCCC(CC)COc1cc(N)ccc1N (centres unmarked) [PPD derivative 3, 2-((2-ethylhexyl)oxy)benzene-1,4-diamine] | moderate sensitizer | 31.9 | 32 | 31.4 | 32.4 | 32.7 | 31.7 | 31.8 | 34.8 | 31 | 6.2 | 5.63 | 7.89 | 5.07 | 15.48 | 19.7 | Penetration profile PPD vs derivatives (times less than PPD) ([1]; listed as PPD 3): 360; Reactivity Class ([3]; 20 min, listed as Derivative 3): Moderate; Reactivity Class ([3]; 20 min, listed as derivative 3): moderate; % of Lysine depletion, Rep 3 ([4]; 24 h): 13.8%; % of Lysine depletion, Rep 1 ([4]; 24 h): 12.8%; Reactivity Class ([4]; 20 min): No or Minimal; Reactivity Class ([4]; 24 h): Low
0.000322 | 0.0121 | 94.3 | Moderate | CCCCCCOc1cc(N)ccc1N [PPD derivative 4, 2-hexyloxy-1,4-diaminobenzene] | moderate sensitizer | 32.8 | 31.8 | 33.8 | 30.8 | 40.8 | 41 | 41.5 | 40 | 34.8 | 1.1 | 0.845 | 1.41 | 1.13 | 13.4 | 15 | Penetration profile PPD vs derivatives (times less than PPD) ([1]; listed as PPD 4): 503.1; Reactivity Class ([3]; 20 min, listed as Derivative 4): Moderate; Reactivity Class ([3]; 20 min, listed as derivative 4): moderate; IC50 (HaCaT cells): 34.8 µM; % of Lysine depletion, Rep 3 ([4]; 24 h): 13.9%; % of Lysine depletion, Rep 1 ([4]; 24 h): 11.3%; Reactivity Class ([4]; 20 min): No or Minimal; Reactivity Class ([4]; 24 h): Low

SMILES | % Parent compound Penetrated (mean) ([1]; 1% W/V applied) [%] | % converted to metabolite (mean) ([1]; 1% W/V applied) [%] | recovery at 8 h, 1 % w/v ([1]; 1% W/V applied) [%] | Reactivity Class ([3]; 24 h) | Sensitizing potential predicted from mean peptide depletion [2] | % of Cysteine depletion, Avg ([3]; 20 min) [%] | % of Cysteine depletion, Rep 2 ([3]; 20 min) [%] | % of Cysteine depletion, Rep 3 ([3]; 20 min) [%] | % of Cysteine depletion, Rep 1 ([3]; 20 min) [%] | % of Cysteine depletion, Avg ([3]; 24 h) [%] | % of Cysteine depletion, Rep 2 ([3]; 24 h) [%] | % of Cysteine depletion, Rep 3 ([3]; 24 h) [%] | % of Cysteine depletion, Rep 1 ([3]; 24 h) [%] | IC50 (HaCaT cells; Homo sapiens, HaCaT, 72 h) [µM] | % of Lysine depletion, Avg ([4]; 20 min) [%] | % of Lysine depletion, Rep 2 ([4]; 20 min) [%] | % of Lysine depletion, Rep 3 ([4]; 20 min) [%] | % of Lysine depletion, Rep 1 ([4]; 20 min) [%] | % of Lysine depletion, Avg ([4]; 24 h) [%] | % of Lysine depletion, Rep 2 ([4]; 24 h) [%] | also measured
COCc1cc(N)ccc1N [MEPPD, 2-(methoxymethyl)benzene-1,4,-diamine, reference compound] | 0.02 | 0.019 | – | – | strong sensitizer | – | – | – | – | – | – | – | – | – | – | – | – | – | – | – | % Parent compound Recovery (mean) ([1]; 1% W/V applied): 95.39%; Penetration profile PPD vs derivatives (times less than PPD) [1]: 8 and 8.1; Penetration profile PPD vs derivatives (times less than PPD) ([1]; listed as ME-PPD): about 7.5; ILT3 (inhibitory receptor) expression (ILT3): increased; IL-8 expression (IL-8): increased expression; Fold increase in IC50 compared to PPD (HaCaT cells): 19 fold; IC50 (HaCaT cells): 544 µM; Mean peptide depletion ([2]; mean of cysteine (1:10) and lysine (1:50), FIG. 12): 53.2%
